Experimental data reported in publication PMC7556031, “Tofacitinib and Baricitinib Are Taken up by Different Uptake Mechanisms Determining the Efficacy of Both Drugs in RA” (International Journal of Molecular Sciences, 2020).

Target: T1, hMATE1 (multidrug and toxin extrusion protein 1) (Homo sapiens, UniProt Q96FL8)
T1 construct: gene SLC47A1; hMATE1 stably transfected in HEK293 cells
T1 sequence (Q96FL8 1-570): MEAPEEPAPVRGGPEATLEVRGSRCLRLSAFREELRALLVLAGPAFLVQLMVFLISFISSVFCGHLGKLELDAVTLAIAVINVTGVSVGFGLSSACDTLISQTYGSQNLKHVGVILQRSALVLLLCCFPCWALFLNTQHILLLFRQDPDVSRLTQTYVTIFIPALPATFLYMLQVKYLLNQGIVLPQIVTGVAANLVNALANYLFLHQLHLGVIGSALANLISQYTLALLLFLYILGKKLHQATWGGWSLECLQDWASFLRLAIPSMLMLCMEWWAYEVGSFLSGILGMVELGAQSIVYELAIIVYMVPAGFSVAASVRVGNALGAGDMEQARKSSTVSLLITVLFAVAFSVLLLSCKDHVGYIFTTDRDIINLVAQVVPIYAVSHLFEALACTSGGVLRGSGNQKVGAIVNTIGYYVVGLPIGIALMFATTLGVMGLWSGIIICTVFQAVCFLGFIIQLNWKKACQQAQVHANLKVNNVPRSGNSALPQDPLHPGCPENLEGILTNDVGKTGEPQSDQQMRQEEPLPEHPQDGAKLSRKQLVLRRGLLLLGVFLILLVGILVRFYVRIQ
Assay: cis-inhibition of ASP+ uptake in hMATE1-HEK293 cells after acidification; supported by LC/MS of temperature-dependent tofacitinib export
Format: cell-based

SMILES: C[C@@H]1CCN(C(=O)CC#N)C[C@@H]1N(C)c1ncnc2[nH]ccc12 [Tofacitinib]
- IC50: 19.8 µM
